{
  "source": "ChEMBL document CHEMBL4804284",
  "parameters_in_all_cases": "scale not given: the % may be the effect or the level left",
  "key": {"[1]": {"molecular_target": "Serine/threonine-protein kinase pim-3 (Homo sapiens) (UniProt Q86V86)", "assay": "Inhibition of DNA-tagged human PIM3 assessed as percent of control at 50000 nM by qPCR analysis relative to control"}, "[2]": {"molecular_target": "Atypical kinase COQ8B, mitochondrial (Homo sapiens) (UniProt Q96D53)", "assay": "Inhibition of DNA-tagged human ADCK4 assessed as percent of control at 50000 nM by qPCR analysis relative to control"}, "[3]": {"molecular_target": "Mitogen-activated protein kinase kinase kinase 15 (Homo sapiens) (UniProt Q6ZN16)", "assay": "Inhibition of DNA-tagged human MAP3K15 assessed as percent of control at 50000 nM by qPCR analysis relative to control"}, "[4]": {"molecular_target": "Cyclin-dependent kinase 2 homolog (Plasmodium falciparum (isolate K1 / Thailand)) (UniProt Q07785)", "assay": "Inhibition of DNA-tagged Plasmodium falciparum PFPK5 assessed as percent of control at 50000 nM by qPCR analysis relative to control"}, "[5]": {"molecular_target": "Serine/threonine-protein kinase PAK 3 (Homo sapiens) (UniProt O75914)", "assay": "Inhibition of DNA-tagged human PAK3 assessed as percent of control at 50000 nM by qPCR analysis relative to control"}, "[6]": {"tested_on": "Receptor-type tyrosine-protein kinase FLT3 (Homo sapiens), P36888 [D835H]", "assay": "Inhibition of DNA-tagged human FLT3 D835H mutant assessed as percent of control at 50000 nM by qPCR analysis relative to control"}, "[7]": {"molecular_target": "TGF-beta receptor type-1 (Homo sapiens) (UniProt P36897)", "assay": "Inhibition of DNA-tagged human TGFBR1 assessed as percent of control at 50000 nM by qPCR analysis relative to control"}, "[8]": {"molecular_target": "Cyclin-dependent kinase 3 (Homo sapiens) (UniProt Q00526)", "assay": "Inhibition of DNA-tagged human CDK3 assessed as percent of control at 50000 nM by qPCR analysis relative to control"}, "[9]": {"tested_on": "Epidermal growth factor receptor (Homo sapiens), P00533 [L858R,T790M]", "assay": "Inhibition of DNA-tagged human EGFR L858R/T790M double mutant assessed as percent of control at 50000 nM by qPCR analysis relative to control"}, "[10]": {"molecular_target": "Serine/threonine-protein kinase TNNI3K (Homo sapiens) (UniProt Q59H18)", "assay": "Inhibition of DNA-tagged human TNNI3K assessed as percent of control at 50000 nM by qPCR analysis relative to control"}, "[11]": {"molecular_target": "Serine/threonine-protein kinase 36 (Homo sapiens) (UniProt Q9NRP7)", "assay": "Inhibition of DNA-tagged human STK36 assessed as percent of control at 50000 nM by qPCR analysis relative to control"}, "[12]": {"molecular_target": "Activated CDC42 kinase 1 (Homo sapiens) (UniProt Q07912)", "assay": "Inhibition of DNA-tagged human TNK2 assessed as percent of control at 50000 nM by qPCR analysis relative to control"}, "[13]": {"molecular_target": "Tyrosine-protein kinase ABL2 (Homo sapiens) (UniProt P42684)", "assay": "Inhibition of DNA-tagged human ABL2 assessed as percent of control at 50000 nM by qPCR analysis relative to control"}, "[14]": {"molecular_target": "Wee1-like protein kinase 2 (Homo sapiens) (UniProt P0C1S8)", "assay": "Inhibition of DNA-tagged human WEE2 assessed as percent of control at 50000 nM by qPCR analysis relative to control"}, "[15]": {"molecular_target": "Serine/threonine-protein kinase NLK (Homo sapiens) (UniProt Q9UBE8)", "assay": "Inhibition of DNA-tagged human NLK assessed as percent of control at 50000 nM by qPCR analysis relative to control"}, "[16]": {"molecular_target": "Receptor-interacting serine/threonine-protein kinase 4 (Homo sapiens) (UniProt P57078)", "sequence (P57078 whole entry)": "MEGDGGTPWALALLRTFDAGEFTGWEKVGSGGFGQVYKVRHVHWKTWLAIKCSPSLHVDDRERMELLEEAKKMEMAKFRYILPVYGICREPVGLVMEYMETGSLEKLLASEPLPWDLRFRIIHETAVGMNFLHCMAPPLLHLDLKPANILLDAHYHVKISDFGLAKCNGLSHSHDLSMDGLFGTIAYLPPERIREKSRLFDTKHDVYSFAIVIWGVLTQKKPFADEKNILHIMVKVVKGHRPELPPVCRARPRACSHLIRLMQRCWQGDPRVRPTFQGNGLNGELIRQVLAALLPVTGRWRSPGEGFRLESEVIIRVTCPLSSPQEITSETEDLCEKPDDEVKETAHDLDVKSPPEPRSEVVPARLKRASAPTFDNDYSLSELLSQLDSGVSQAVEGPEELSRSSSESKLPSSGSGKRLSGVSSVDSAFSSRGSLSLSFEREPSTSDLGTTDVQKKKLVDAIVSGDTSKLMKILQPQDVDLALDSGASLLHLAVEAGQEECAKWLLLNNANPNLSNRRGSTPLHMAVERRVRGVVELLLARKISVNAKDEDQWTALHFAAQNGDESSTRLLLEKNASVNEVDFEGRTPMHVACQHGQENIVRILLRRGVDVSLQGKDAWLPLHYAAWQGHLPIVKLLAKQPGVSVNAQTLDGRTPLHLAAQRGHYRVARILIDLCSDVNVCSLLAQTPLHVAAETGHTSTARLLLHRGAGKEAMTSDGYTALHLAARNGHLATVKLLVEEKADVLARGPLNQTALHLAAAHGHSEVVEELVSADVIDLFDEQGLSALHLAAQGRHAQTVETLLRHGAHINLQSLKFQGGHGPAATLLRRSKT", "assay": "Inhibition of DNA-tagged human RIPK4 assessed as percent of control at 50000 nM by qPCR analysis relative to control"}, "[17]": {"tested_on": "Epidermal growth factor receptor (Homo sapiens), P00533 [T790M]", "assay": "Inhibition of DNA-tagged human EGFR T790M mutant assessed as percent of control at 50000 nM by qPCR analysis relative to control"}, "[18]": {"molecular_target": "Fibroblast growth factor receptor 3 (Homo sapiens) (UniProt P22607)", "assay": "Inhibition of DNA-tagged human FGFR3 assessed as percent of control at 50000 nM by qPCR analysis relative to control"}, "[19]": {"tested_on": "Tyrosine-protein kinase ABL1 (Homo sapiens), P00519 [Q252H]", "assay": "Inhibition of DNA-tagged non-phosphorylated human ABL1 Q252H mutant assessed as percent of control at 50000 nM by qPCR analysis relative to control"}, "[20]": {"molecular_target": "Serine/threonine-protein kinase Chk1 (Homo sapiens) (UniProt O14757)", "assay": "Inhibition of DNA-tagged human CHEK1 assessed as percent of control at 50000 nM by qPCR analysis relative to control"}, "[21]": {"molecular_target": "Serine/threonine-protein kinase Nek11 (Homo sapiens) (UniProt Q8NG66)", "sequence (Q8NG66 whole entry)": "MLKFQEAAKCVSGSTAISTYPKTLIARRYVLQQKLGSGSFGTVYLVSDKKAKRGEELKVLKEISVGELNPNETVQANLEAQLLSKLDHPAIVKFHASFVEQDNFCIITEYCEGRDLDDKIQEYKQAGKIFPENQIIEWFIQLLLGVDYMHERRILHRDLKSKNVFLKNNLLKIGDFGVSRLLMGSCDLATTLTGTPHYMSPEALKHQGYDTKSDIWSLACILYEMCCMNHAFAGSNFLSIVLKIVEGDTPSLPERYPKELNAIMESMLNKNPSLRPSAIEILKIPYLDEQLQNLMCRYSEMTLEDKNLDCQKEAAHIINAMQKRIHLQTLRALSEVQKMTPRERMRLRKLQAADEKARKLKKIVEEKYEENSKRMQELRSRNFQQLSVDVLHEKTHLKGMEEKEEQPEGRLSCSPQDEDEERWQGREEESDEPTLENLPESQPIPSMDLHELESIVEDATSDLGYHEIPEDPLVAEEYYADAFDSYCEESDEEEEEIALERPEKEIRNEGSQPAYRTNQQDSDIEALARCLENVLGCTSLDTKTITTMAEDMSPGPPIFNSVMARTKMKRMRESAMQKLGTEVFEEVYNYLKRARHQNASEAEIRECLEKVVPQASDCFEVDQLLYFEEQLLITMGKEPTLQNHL", "assay": "Inhibition of DNA-tagged human NEK11 assessed as percent of control at 50000 nM by qPCR analysis relative to control"}, "[22]": {"tested_on": "Receptor-type tyrosine-protein kinase FLT3 (Homo sapiens), P36888 [K663Q]", "assay": "Inhibition of DNA-tagged human FLT3 K663Q mutant assessed as percent of control at 50000 nM by qPCR analysis relative to control"}, "[23]": {"tested_on": "eIF-2-alpha kinase GCN2 (Homo sapiens), Q9P2K8 [S808G]", "assay": "Inhibition of DNA-tagged human GCN2 S808G mutant kinase domain 2 assessed as percent of control at 50000 nM by qPCR analysis relative to control"}, "[24]": {"molecular_target": "Rho-associated protein kinase 1 (Homo sapiens) (UniProt Q13464)", "sequence (Q13464 2-1354 limits assumed)": "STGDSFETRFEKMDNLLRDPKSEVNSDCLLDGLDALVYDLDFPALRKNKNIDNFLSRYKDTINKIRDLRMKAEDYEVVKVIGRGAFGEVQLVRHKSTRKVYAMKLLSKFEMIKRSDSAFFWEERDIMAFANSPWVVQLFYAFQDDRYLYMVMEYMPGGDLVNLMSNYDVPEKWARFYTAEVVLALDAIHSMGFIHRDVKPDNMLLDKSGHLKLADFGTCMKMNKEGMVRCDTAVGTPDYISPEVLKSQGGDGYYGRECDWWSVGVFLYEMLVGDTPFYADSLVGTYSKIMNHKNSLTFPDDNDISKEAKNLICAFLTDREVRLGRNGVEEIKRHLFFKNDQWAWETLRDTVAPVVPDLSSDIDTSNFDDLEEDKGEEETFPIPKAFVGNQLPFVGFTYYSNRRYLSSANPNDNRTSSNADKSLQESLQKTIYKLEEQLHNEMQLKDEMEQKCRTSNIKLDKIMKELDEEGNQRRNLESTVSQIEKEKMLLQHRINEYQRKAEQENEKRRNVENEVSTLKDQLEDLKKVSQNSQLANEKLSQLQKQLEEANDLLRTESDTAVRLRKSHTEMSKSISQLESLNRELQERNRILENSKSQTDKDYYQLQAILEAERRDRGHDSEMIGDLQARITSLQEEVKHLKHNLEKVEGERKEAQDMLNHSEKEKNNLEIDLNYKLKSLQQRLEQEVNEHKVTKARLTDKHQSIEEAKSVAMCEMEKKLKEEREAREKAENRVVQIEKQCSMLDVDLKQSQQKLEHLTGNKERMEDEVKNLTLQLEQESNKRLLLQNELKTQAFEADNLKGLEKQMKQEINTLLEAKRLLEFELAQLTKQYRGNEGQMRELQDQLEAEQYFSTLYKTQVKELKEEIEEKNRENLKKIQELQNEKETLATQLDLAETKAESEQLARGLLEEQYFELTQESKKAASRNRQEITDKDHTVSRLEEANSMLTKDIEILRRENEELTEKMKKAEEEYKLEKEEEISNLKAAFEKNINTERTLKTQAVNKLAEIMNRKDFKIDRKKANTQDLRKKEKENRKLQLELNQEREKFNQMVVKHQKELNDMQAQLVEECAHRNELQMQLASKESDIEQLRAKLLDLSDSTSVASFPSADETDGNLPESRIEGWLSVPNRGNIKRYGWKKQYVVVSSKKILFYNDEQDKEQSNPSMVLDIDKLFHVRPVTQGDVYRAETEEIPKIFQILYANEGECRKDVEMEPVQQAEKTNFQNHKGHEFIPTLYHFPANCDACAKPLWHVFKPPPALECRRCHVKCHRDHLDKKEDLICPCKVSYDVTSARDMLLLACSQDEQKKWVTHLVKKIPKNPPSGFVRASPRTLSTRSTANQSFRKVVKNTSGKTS", "assay": "Inhibition of DNA-tagged human ROCK1 assessed as percent of control at 50000 nM by qPCR analysis relative to control"}, "[25]": {"molecular_target": "Receptor-interacting serine/threonine-protein kinase 1 (Homo sapiens) (UniProt Q13546)", "assay": "Inhibition of DNA-tagged human RIPK1 assessed as percent of control at 50000 nM by qPCR analysis relative to control"}, "[26]": {"molecular_target": "Hepatocyte growth factor receptor (Homo sapiens) (UniProt P08581)", "assay": "Inhibition of DNA-tagged human MET assessed as percent of control at 50000 nM by qPCR analysis relative to control"}, "[27]": {"molecular_target": "Mitogen-activated protein kinase 11 (Homo sapiens) (UniProt Q15759)", "assay": "Inhibition of DNA-tagged human p38-beta assessed as percent of control at 50000 nM by qPCR analysis relative to control"}, "[28]": {"molecular_target": "Citron Rho-interacting kinase (Homo sapiens) (UniProt O14578)", "sequence (O14578 whole entry)": "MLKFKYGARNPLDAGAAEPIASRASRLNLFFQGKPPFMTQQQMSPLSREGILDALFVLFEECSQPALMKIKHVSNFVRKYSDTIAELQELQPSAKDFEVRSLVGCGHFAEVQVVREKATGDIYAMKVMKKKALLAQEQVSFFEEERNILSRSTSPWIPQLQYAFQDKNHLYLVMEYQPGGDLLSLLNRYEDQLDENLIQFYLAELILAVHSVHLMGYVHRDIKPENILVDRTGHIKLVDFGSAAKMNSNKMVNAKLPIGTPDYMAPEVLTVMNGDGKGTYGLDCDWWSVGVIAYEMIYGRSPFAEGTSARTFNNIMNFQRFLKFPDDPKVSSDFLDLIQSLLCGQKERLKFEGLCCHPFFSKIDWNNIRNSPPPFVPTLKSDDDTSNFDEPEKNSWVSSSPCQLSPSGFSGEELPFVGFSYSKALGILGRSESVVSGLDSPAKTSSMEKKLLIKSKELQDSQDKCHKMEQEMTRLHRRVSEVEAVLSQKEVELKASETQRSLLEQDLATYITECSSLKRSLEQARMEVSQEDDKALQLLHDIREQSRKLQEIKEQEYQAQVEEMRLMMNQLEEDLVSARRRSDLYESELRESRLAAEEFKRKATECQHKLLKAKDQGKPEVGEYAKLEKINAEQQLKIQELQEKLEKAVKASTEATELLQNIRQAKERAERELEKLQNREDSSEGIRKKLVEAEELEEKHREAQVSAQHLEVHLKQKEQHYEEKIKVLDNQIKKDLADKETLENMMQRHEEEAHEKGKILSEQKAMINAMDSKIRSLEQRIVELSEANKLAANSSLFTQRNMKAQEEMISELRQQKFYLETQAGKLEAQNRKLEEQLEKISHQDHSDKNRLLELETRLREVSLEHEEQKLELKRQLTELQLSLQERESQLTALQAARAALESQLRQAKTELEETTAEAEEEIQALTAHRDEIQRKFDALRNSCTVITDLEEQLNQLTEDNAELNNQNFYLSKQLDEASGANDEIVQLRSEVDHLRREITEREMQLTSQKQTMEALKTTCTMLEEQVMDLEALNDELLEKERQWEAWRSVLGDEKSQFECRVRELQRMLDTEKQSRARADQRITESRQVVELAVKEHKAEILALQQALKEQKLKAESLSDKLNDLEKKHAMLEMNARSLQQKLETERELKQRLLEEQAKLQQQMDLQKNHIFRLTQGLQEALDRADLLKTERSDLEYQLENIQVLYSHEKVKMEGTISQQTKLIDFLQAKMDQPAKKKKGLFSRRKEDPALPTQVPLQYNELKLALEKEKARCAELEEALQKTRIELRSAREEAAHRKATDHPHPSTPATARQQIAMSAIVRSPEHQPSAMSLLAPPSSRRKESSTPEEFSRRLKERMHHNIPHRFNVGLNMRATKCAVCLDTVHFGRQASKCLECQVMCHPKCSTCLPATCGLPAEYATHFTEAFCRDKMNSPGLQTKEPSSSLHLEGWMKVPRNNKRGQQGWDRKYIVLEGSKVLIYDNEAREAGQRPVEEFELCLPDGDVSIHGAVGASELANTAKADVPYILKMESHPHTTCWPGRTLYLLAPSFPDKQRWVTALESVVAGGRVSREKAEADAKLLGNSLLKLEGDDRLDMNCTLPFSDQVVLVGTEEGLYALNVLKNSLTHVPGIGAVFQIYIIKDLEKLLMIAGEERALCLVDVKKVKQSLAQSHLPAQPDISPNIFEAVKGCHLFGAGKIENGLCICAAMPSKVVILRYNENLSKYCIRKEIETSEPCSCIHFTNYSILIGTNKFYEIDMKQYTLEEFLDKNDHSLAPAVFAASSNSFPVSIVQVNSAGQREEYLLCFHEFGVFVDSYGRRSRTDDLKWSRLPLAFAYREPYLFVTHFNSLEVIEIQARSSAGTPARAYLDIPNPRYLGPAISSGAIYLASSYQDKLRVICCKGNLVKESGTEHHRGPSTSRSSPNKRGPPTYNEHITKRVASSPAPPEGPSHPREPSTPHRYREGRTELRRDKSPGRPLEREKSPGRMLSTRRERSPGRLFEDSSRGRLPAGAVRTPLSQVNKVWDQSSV", "assay": "Inhibition of DNA-tagged human CIT assessed as percent of control at 50000 nM by qPCR analysis relative to control"}, "[29]": {"molecular_target": "BDNF/NT-3 growth factors receptor (Homo sapiens) (UniProt Q16620)", "assay": "Inhibition of DNA-tagged human TRKB assessed as percent of control at 50000 nM by qPCR analysis relative to control"}},
  "data": [
    {"smiles": "CN1C(=O)/C(=C2/C(=O)Nc3ccccc32)c2ccccc21", "values": [
      {"measurement": "Activity", "setting": "[1]", "value": 79, "unit": "%"},
      {"measurement": "Activity", "setting": "[2]", "value": 78, "unit": "%"},
      {"measurement": "Activity", "setting": "[3]", "value": 69, "unit": "%"},
      {"measurement": "Activity", "setting": "[4]", "value": 72, "unit": "%"},
      {"measurement": "Activity", "setting": "[5]", "value": 93, "unit": "%"},
      {"measurement": "Activity", "setting": "[6]", "value": 100, "unit": "%"},
      {"measurement": "Activity", "setting": "[7]", "value": 100, "unit": "%"},
      {"measurement": "Activity", "setting": "[8]", "value": 78, "unit": "%"},
      {"measurement": "Activity", "setting": "[9]", "value": 98, "unit": "%"},
      {"measurement": "Activity", "setting": "[10]", "value": 95, "unit": "%"},
      {"measurement": "Activity", "setting": "[11]", "value": 90, "unit": "%"},
      {"measurement": "Activity", "setting": "[12]", "value": 93, "unit": "%"},
      {"measurement": "Activity", "setting": "[13]", "value": 89, "unit": "%"},
      {"measurement": "Activity", "setting": "[14]", "value": 95, "unit": "%"},
      {"measurement": "Activity", "setting": "[15]", "value": 100, "unit": "%"},
      {"measurement": "Activity", "setting": "[16]", "value": 98, "unit": "%"},
      {"measurement": "Activity", "setting": "[17]", "value": 96, "unit": "%"},
      {"measurement": "Activity", "setting": "[18]", "value": 100, "unit": "%"},
      {"measurement": "Activity", "setting": "[19]", "value": 100, "unit": "%"},
      {"measurement": "Activity", "setting": "[20]", "value": 100, "unit": "%"},
      {"measurement": "Activity", "setting": "[21]", "value": 100, "unit": "%"},
      {"measurement": "Activity", "setting": "[22]", "value": 91, "unit": "%"},
      {"measurement": "Activity", "setting": "[23]", "value": 88, "unit": "%"},
      {"measurement": "Activity", "setting": "[24]", "value": 87, "unit": "%"},
      {"measurement": "Activity", "setting": "[25]", "value": 95, "unit": "%"},
      {"measurement": "Activity", "setting": "[26]", "value": 100, "unit": "%"},
      {"measurement": "Activity", "setting": "[27]", "value": 100, "unit": "%"},
      {"measurement": "Activity", "setting": "[28]", "value": 78, "unit": "%"},
      {"measurement": "Activity", "setting": "[29]", "value": 88, "unit": "%"}
    ]}
  ]
}
